# Measured values as given in PMC11790958, “Molecular mechanism of condensin I activation by KIF4A” (The EMBO Journal, 2024).
# Legend:
# CI NdelH, D2delC = test: Fluorescence polarisation competition assay, 5-FAM NCAPH peptide and CI NdelH, D2delC; format: binding, human; conditions: 100 nM 5-FAM-NCAPH55-77 with 4 μM CID2ΔC,NΔH, 100 μM competing peptide; listed as KIF4a peptide
# Description: FP competition assays were performed for NCAPD2 peptide, using a fixed concentration of 100 nM of F-NCAPD2-C1376-1398 and 6 μM of NCAPG, in the presence or absence of 10 μM KIF4A WT1206-1228 or KIF4A Mut1206-1228 peptide. Similar assays were performed for NCAPH2 peptide, using a fixed concentration of 100 nM of F-N-NCAPH55-77 and 4 μM CI NdelH, D2delC, in the presence or absence of 100 μM of KIF4A WT1206-1228 or KIF4A Mut1206-1228 peptide.
# Background was determined by measuring 100 nM of F-NCAPD2-C1376-1398 or F-N-NCAPH55-77 in the presence of peptide buffer (20 mM HEPES pH 8), KIF4A WT1206-1228 or KIF4A Mut1206-1228 peptide, and subtracted from each measurement. Assay was performed with three technical repeats, setting up a new plate with distinct protein aliquot each time, reading the plate three times to ensure equilibrium. Data analysed and plotted using GraphPad Prism.
# condensin I [1] = test: ATPase activity assay (EnzCheck phosphate assay), basal; format: biochemical, human; conditions: 50 μM peptide, 3 repeats
# Description: ATPase assays were performed based on the method described previously (Voulgaris and Gligoris, [2019]) using the EnzCheck phosphate assay kit (Invitrogen). Condensin I complexes were used at a final concentration of 50 nM, while HAWK subunits were used at 100 nM and peptides were used at 50 μM. Basal ATPase assays were performed with final salt concentration of 100 mM KCl. DNA titrations were performed with 50 bp dsDNA annealed by heating to 98 degrees and slowly cooling in annealing buffer (10 mM Tris pH 7.5, 50 mM NaCl, 1 mM EDTA).
# Plate was read with a POLARstar Omega plate reader (BMG).
# condensin I [2] = test: Single-molecule loop extrusion assay, fraction of looped DNA; format: biochemical, human; conditions: for fraction of looped DNA: 0.5 nM condensin I WT, peptide at 1000x
# Description: (§1) Real-time imaging of the loop extrusion by condensin I was carried out in the aforementioned flow cells as follows. The channel was washed with T50 buffer (40 mM Tris-HCl pH 8.0, 50 mM NaCl, 0.2 mM EDTA), incubated with 1 µM Streptavidin in T50 buffer for 2 min and incubated with 5 mg/ml BSA in T50 buffer for 5 min to further reduce unspecific binding of proteins to the surface. The excess Streptavidin and BSA were washed thoroughly with T50 buffer. Lambda DNA biotinylated at both ends was introduced to the channel at a flow rate of 2 µl/min facilitating surface attachment through the streptavidin–biotin binding. The flow was adjusted and kept constant with a syringe pump attached to the outlet of the flow cell. Excess DNA was washed thoroughly with T50 buffer.
# The surface attached DNA molecules were imaged in the imaging buffer (40 mM Tris-HCl pH 7.5, 2 mM Trolox, 30 mM D-glucose, 50 mM Potassium Glutamate (L-Glutamic acid monopotassium salt monohydrate), 2.5 mM MgCl2, 1 mg/ml BSA, 1 mM TCEP, 2.5 mM ATP, 100 nM Sytox Orange, 30 mg/ml Glucose Oxidase (15 U/ml), 20 mg/ml Catalase (1000 U/ml)). The imaging buffer supplied with used condensin I variant was introduced into the channel at a flow rate of 10 µl/min for 100 s and the flow was stopped afterward. For the activity assay comparing condensin I WT and condensin I ΔNCAPG 1 nM of protein, for the activity assay comparing condensin I WT and condensin I WT supplied with KIF4A peptide 0.5 nM of protein and 1000× of the KIF4A peptide, for the analysis of loop extrusion rate 0.75 nM–3 nM of protein (in the case of condensin I WT supplied with KIF4A peptide, correspondingly 1000× of KIF4A peptide) was used.
# Region of interests (ROIs) containing a single Lambda DNA molecule were chosen manually and annotated using the tools provided by the Python package Napari. For a single loop extrusion experiment, a field of contains ~100–200 DNA strands. Only the strands that were tethered at both ends from the beginning to the end of the data acquisition were considered for the analysis. Each of the DNA strands were manually analysed whether they form at least one loop during an acquisition time of 1000 s, including the initial 100 s of flow. The “fraction of looped DNA” (Fig. 4B,C) was defined as the ratio of the number of the DNA strands which form at least one loop to the total number of DNA strands. This quantity was taken as a measure for the activity of the protein. […] (For 1 nM condensin I WT 4, for 1 nM condensin I ΔNCAPG 10, for 0.5 nM condensin I WT 3, For 0.5 nM condensin I WT supplied with 0.5 µM KIF4A three independent experiments were performed and analysed.) The error bars in the Fig. 4 are given by the standard deviation of these datasets. […]
# condensin I [3] = test: Single-molecule loop extrusion assay, loop extrusion rate; format: biochemical, human; conditions: without flow, 0.75 nM-3 nM protein, peptide at 1000x
# Description: as §1, with “The flow was adjusted and kept constant with a syringe pump attached to the outlet of the flow cell. Excess DNA was washed thoroughly with T50 buffer.” left out
# ROIs with a DNA strand that formed a loop were cropped and saved in TIFF format for further analysis. […] The kymographs were built by summing the fluorescence intensity for 11 pixels along the line centred around the DNA axis from the median filtered images. […]
# For the determination of the loop extrusion rate, each line in the kymograph was split into three regions: “Up”, “Loop” and “Down” (Fig. 4D). For this, first the loop region was determined as follows: Using the “find_peaks” function from the package signal from the Python module scipy local intensity maxima in each line of the kymograph was determined. […] The loop extrusion rate in Fig. 4G was determined by fitting a linear function f(x) = kx + c to the initial 5 s of the loop growth curve. […]
sequence,measurement,setting,value
"PGKKKKRALASNTSFFSGCSPIE [KIF4A1206-1228, KIF4A SLiM peptide, residues 1206-1228, unlabelled]",FP signal on addition of competing peptide,"CI NdelH, D2delC",~ 20 mP
same,effect of peptide on ATPase activity of CI,condensin I [1]; 50 nM CI,small but significant increase
same,effect of peptide on ATPase rate of CINΔH,condensin I [1]; 50 nM CINΔH,no additional stimulation
same,"effect of peptide on ATPase rate of CINΔH,D3ΔC","condensin I [1]; 50 nM CINΔH,D3ΔC",no additional stimulation
same,fraction of looped DNA,condensin I [2]; experiment 1,0.9481
same,fraction of looped DNA,condensin I [2]; experiment 2,1
same,fraction of looped DNA,condensin I [2]; experiment 3,0.9388
same,tethers having DNA loops,"condensin I [2]; 0.5 nM condensin I, with or without 0.5 μM KIF4A1206-1228 peptide, 1000 s acquisition, mean of n = 3 experiments",~ 96%
same,loop extrusion rate compared to CIWT,condensin I [3],no significant difference
